In patent US6139864A, “Compositions for common colds” (Sudzucker Aktiengesellschaft, priority 1998, dated 2000):

How the values were obtained:
Staphylococcus aureus = assay: Growth of Staphylococcus aureus in CASO medium with added sugar alcohol, optical density OD578 versus control; format: cell-based; settings: 16 h, read-out: growth reduced to
Method: Staphylococcus aureus was cultivated at 37° C. in CASO medium to which, in addition to the carbon source glucose (5% strength), isomalt (0.58 M) had been added. The growth of the bacteria cultures in a shaking flask was determined after 16 h by means of the optical density (OD578) and compared with a control (CASO medium without isomalt). It was observed that in all experiments the growth of the cultures which were grown in isomalt was inhibited by more than 50%.

[1] = Godfrey et al. 1992; Zarembo et al. 1992; U.S. Pat. Nos. 5,409,905 and 5,002,970; cited from earlier work
[2] = Nephelometric determination of free Zn ions in the presence of polyols; format: physicochemical; settings: 35° C., acetate buffer pH=6.0; for Percentage of free (uncomplexed) ions: of total amount, 26 mg Zn in 50 ml; for Zn ions free in solution: standardized to the same Zn ion concentration (26 mg in 50 ml)
Method: 10 ml of zinc gluconate solution (2 g of zinc gluconate and 250 ml of deionized water) are mixed with 10 ml of polyol solution (1.0 g of sugar or sugar alcohol dissolved in 25 ml of deionized water) and 2 ml of acetate buffer (pH=6.0) and thermostatted at 35° C. in a cuvette.
1 molar NaHCO3 solution is subsequently added dropwise in small amounts, and the turbidity is determined using a turbidity photometer.
Isomalt, sucrose, glucose, hard isomalt candies, the zinc gluconate which was used as a source of zinc and two commercial products are compared, the overall amount of Zn ions in each case corresponding to 26 mg in 50 ml of solution.

colds = settings: free zinc ions; Mossad et al. 1996, Godfrey et al. 1996; cited from earlier work
rhinoviruses = settings: Merluzzi et al. 1989; cited from earlier work
[3] = Dissolution rate of sugar alcohols; format: physicochemical

Row | Compound | Percentage of free (uncomplexed) ions [2] | Zn ions free in solution [2] | also measured
1 | OC[C@@H](O)[C@@H](O)[C@H](O)[C@@H](O)CO [sorbitol] |  |  | activity at 580000 µM (Staphylococcus aureus): ~75%; zinc-complexing action [1]: zinc-complexing action
2 | O=C[C@H](O)[C@@H](O)[C@H](O)[C@H](O)CO [Glucose] | 50% | 13.00 mg in 50 ml of solution | 
3 | zinc ions |  |  | duration and severity of the symptoms of colds (colds): markedly reduces both the duration and the severity of the symptoms of colds; antiviral effects (rhinoviruses): antiviral effects are a direct function of the amount of free Zn^2+ ions
4 | OC[C@@H](O)[C@@H](O)[C@H](O)[C@H](O)CO [mannitol] |  |  | zinc-complexing action [1]: zinc-complexing action
5 | OC[C@H]1O[C@@](CO)(O[C@H]2O[C@H](CO)[C@@H](O)[C@H](O)[C@H]2O)[C@@H](O)[C@@H]1O [Sucrose] | 48% | 12.40 mg in 50 ml of solution | 
6 | zinc gluconate [Zn gluconate] | 64% | 14.62 mg in 50 ml of solution | 
7 | OC[C@@H](O)[C@@H](O)[C@H](O)[C@H](O)CO[C@H]1O[C@H](CO)[C@@H](O)[C@H](O)[C@H]1O [1,1-GPM, 1-O-α-D-glucopyranosyl-D-mannitol] |  |  | dissolution rate compared with 1,6-GPS [3]: considerably lower dissolution rate than 1,6-GPS
